Measurements as given in patent publication US8236963B2, “Tricyclic spiro derivatives as CRTH2 modulators” (Merck Serono SA, priority 2005, dated 2012).

Experiments:
[1] = system: DK-PGD2-induced vascular leakage; test: Model of DK-PGD2-induced vascular leakage in mice; type: in vivo, Balb/c mice; conditions: Mus musculus, 1.5 h; dose of 30 mg/kg; 30 min before DK-PGD2 challenge; Evans blue extravasation
Description: This test is described in Takeshita et al. (2004). Balb/c mice (Elevage Janvier) (8 week old) received an intradermal injection of DK-PGD2 (10 μg in 30 μl) on their shaved backs and an intravenous injection of Evans blue solution (25 mg/kg) 30 min after administration of the test molecules (spiro derivative). Ninety minutes after the challenge, the animals were sacrificed. The skin of the back was removed and blood was sampled. The extravasated dye (punch diameter: 5 mm) was extracted by 0.2 ml of formamide and was quantified by fluorescence (E1: 585 nm, E2: 660 nm). The Evans Blue extravasation ratio was expressed as the following: skin/serum×1000.

[2] = system: DNFB-induced ear swelling; test: CHS model (contact hypersensitivity to DNFB, ear swelling); type: in vivo, Balb/c mice; conditions: 60 mg/kg; po; 30 min before DNFB challenge; ear thickness on day 6
Source text: The contact hypersensitivity model can be used to evaluate the therapeutic efficacy of spiro derivatives on skin inflammation mediated by T cells. The model is well established for characterization of compound for dermatological indications like psoriasis and allergic contact dermatitis (Xu et al. J Exp Med. 183, 1001-12, 1996). It involves a sensitization phase and a subsequent challenge with an antigen (DNFB, 2,4-dinitrofluorbenzene). […] The edema can be measured by caliper at the challenged site (ear of the mice). Intravenous or oral administration with 10% Labrasol as vehicle of the compounds of the invention 30 min before challenge with DNFB results in a decrease of the swelling and therefore reduces inflammation in the skin compared to positive controls treated with vehicle only before challenge with the antigen. Negative control mice are not sensitized, but challenged with DNFB, therefore no T cell dependent inflammation occurs and no edema is formed. Balb/c mice were obtained from CharlesRiver (Calcco, Italy). […]
Mice were sensitized and challenged to elicit CHS to DNFB. […] Ear thickness was monitored on day 6 (1 day after challenge) using a caliper (Mitutoyo, Milan, Italy). Ear swelling was calculated as ((Tn−T5)right ear−(Tn−T5)left ear), wherein Tn and T5 represent values of ear thickness at day n of investigation and day 5 prior to challenge, respectively.

[3] = molecular target: T1, CRTH2 (Homo sapiens, UniProt Q9Y5Y4); test: Determination of Ki (radioligand binding assay, equilibrium competition against [3H]PGD2); design: expressed in transfected cells; host or cells: HEK293 (EBNA) cells, membrane preparation; conditions: average of at least three independent dose response experiments
T1 sequence (Q9Y5Y4 1-395): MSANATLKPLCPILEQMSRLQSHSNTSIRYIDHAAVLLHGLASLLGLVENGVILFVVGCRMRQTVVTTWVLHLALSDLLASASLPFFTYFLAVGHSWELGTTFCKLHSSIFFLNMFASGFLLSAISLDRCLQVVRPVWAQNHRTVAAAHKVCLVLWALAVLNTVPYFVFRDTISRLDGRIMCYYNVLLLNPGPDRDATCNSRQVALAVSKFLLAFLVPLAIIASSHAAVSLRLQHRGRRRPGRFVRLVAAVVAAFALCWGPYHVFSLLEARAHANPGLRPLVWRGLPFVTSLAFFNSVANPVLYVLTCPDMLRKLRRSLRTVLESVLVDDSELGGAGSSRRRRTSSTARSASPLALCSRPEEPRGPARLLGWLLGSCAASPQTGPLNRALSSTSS
Description: The inhibitory activity can be investigated by a radioligand binding assay (Sawyer et al., Br. J. Pharmocol 2002, 137, 1163-72). The radioligand binding assay was performed at room temperature in binding buffer (10 mM HEPES/KOH pH […], with protease inhibitor cocktail tablets), containing 1.5 nM [^3H]PGD2 (Amersham, 156 Cie/mmol), and 10 μg of hCRTH2 HEK293 (EBNA) cell membrane protein in a final volume of 100 μl in 96 well plates (Corning, USA). Non-specific binding was determined in the presence of 1 μM PGD2 (Cayman, USA). Competing spiro-indolinones were diluted in dimethylsulphoxide so that the total volume of dimethylsulfoxide was kept constant at 1% dimethylsulphoxide (Me2SO) Serial dilutions of 100 μM and […] were prepared. 10 μl each of these spiro-indolinone stock solutions were added. Incubation (60 min at room temperature) was terminated by rapid filtration through 96 wells hydrophobic GF/C Unifilter plates (Whatman, USA). Filters were washed twice with 250 μl of Tris-HCl pH 7.4, 10 mM MnCl2, and residual radioligand bound to the filters was mixed to 100 μl of liquid scintillation cocktail (Optiphase Supermix, Perkin Elmer, USA) and binding activity was determined by counting residual radioligand using a 1450 Micro-beta scintillation counter (Wallac, UK). The following representative compounds were tested. All inhibited the binding of PGD2 to CRTH2 by more than 70%. • (1′-benzyl-5-chloro-2,2′,5′-trioxospiro[indole-3,3′-pyrrolidin]-1(2H)-yl)acetic acid • (1′-benzyl-5-fluoro-2,2′,5′-trioxospiro[indole-3,3′-pyrrolidin]-1(2H)-yl)acetic acid • 4-(1′-allyl-5-chloro-2,2′,5′-trioxospiro[indole-3,3′-pyrrolidin]-1(2H)-yl)butanoic acid • [5-chloro-1′-(2-methoxyethyl)-2,2′,5′-trioxospiro[indole-3,3′-pyrrolidin]-1(2H)-yl]acetic acid • 4-(1′-benzyl-5-chloro-2,2′,5′-trioxospiro[indole-3,3′-pyrrolidin]-1(2H)-yl)butanoic acid • (1′-benzyl-5-methoxy-2,2′,5′-trioxospiro[indole-3,3′-pyrrolidin]-1(2H)-yl)acetic acid • [5-fluoro-1′-[(2-methoxyethoxy)methyl]-2,2′,5′-trioxospiro[indole-3,3′-pyrrolidin]-1(2H)-yl]acetic acid • 4-(1′-allyl-5-fluoro-2,2′,5′-trioxospiro[indole-3,3′-pyrrolidin]-1(2H)-yl)butanoic acid • 4-(1′-benzyl-5-fluoro-2,2′,5′-trioxospiro[indole-3,3′-pyrrolidin]-1(2H)-yl)butanoic acid
Ki values were determined by equilibrium competition binding experiments against [^3H]PGD2. Ki values were calculated from the formula below and represent the average of at least three independent dose response experiments. The Ki values give the ligand concentrations necessary to inhibit 50% of the binding of [^3H]PGD2 to CRTH2. Ki=IC50/(1+[Concentration of Ligand]/Kd)]
All experiments were performed in 96 well plates, in a final volume of 100 μl according to the above described filtration assay. The concentration of membranes and 3 [H]PGD2, as well as the positive and negative controls were identical to the conditions described above.

[4] = molecular target: T1, CRTH2; test: Radioligand binding assay ([3H]PGD2, hCRTH2 HEK293 (EBNA) cell membranes); design: expressed in transfected cells; host or cells: HEK293 (EBNA) cells, membrane preparation; conditions: 1.5 nM [3H]PGD2, 10 μg hCRTH2 HEK293 (EBNA) membrane protein, 60 min at room temperature
Source text: Human CRTH2 cDNA was amplified by PCR using a human urinary bladder cDNA library as a template and specific primers containing HindIII and BamHI restriction sites for cloning into the pCEP4 vector (Invitrogen). The vector construction is described in detail in Sawyer et al., Br. J. Pharmocol 2002, 137, 1163-72. The nucleotide sequence of the cloned cDNA was identical the previously reported hCRTH2 sequence (Nagata et al, 1999, J. Immunol. 162, 1278-1286).
HEK293 (EBNA) cells were transfected with the pCEP4-hCRTH2 construct using the calcium phosphate technique. Cells were maintained in culture at 37° C. in an atmosphere of 5% CO2 in Dulbecco's modified Eagle's F12 medium (Invitrogen), containing 10% heat-inactivated foetal calf serum (TerraCell International, Canada), 2 mM Glutamine, 100 units/ml of penicillin and 100 μg/ml streptomycin (Invitrogen). 48 hours after the transfection, cells were grown in presence of 300 μg/ml of Hygromycin B (Invitrogen) for 4 weeks and antibiotic resistant cells were amplified for cell membrane preparation.
Adherent HEK293 (EBNA) cells expressing hCRTH2 were cultured in 225 cm^2 cell culture flasks (Corning, USA) in 30 ml of medium. After two rinses of phosphate buffered saline (PBS), cells were harvested in 10 ml of PBS containing 1 mM EDTA, centrifuged at 500×g for 5 min at 4° C. and frozen at −80° C. The pellet was re-suspended in 50 mM Tris-HCl, pH 7.4, 2 mM EDTA, 250 mM Sucrose, containing protease inhibitor cocktail tablets, (Complete EDTA-free, Roche, Germany) and incubated 30 min at 4° C. Cells were disrupted by nitrogen cavitation (Parr Instruments, USA) at 4° C. (800 p.s.i. for 30 min), and centrifuged at 500×g for 10 min at 4° C. Pellet containing nuclei and cellular debris was discarded and supernatant was centrifuged 60 min at 4° C. at 45000×g. Membrane pellet was re-suspended in storage buffer (10 mM HEPES/KOH pH 7.4, 1 mM EDTA, 250 mM sucrose, protease inhibitor cocktail tablets) using Dounce homogenization and frozen in liquid nitrogen, and stored at −80° C.
The inhibitory activity can be investigated by a radioligand binding assay (Sawyer et al., Br. J. Pharmocol 2002, 137, 1163-72). The radioligand binding assay was performed at room temperature in binding buffer (10 mM HEPES/KOH pH […], with protease inhibitor cocktail tablets), containing 1.5 nM [^3H]PGD2 (Amersham, 156 Cie/mmol), and 10 μg of hCRTH2 HEK293 (EBNA) cell membrane protein in a final volume of 100 μl in 96 well plates (Corning, USA). Non-specific binding was determined in the presence of 1 μM PGD2 (Cayman, USA). Competing spiro-indolinones were diluted in dimethylsulphoxide so that the total volume of dimethylsulfoxide was kept constant at 1% dimethylsulphoxide (Me2SO) Serial dilutions of 100 μM and […] were prepared. 10 μl each of these spiro-indolinone stock solutions were added. Incubation (60 min at room temperature) was terminated by rapid filtration through 96 wells hydrophobic GF/C Unifilter plates (Whatman, USA). Filters were washed twice with 250 μl of Tris-HCl pH 7.4, 10 mM MnCl2, and residual radioligand bound to the filters was mixed to 100 μl of liquid scintillation cocktail (Optiphase Supermix, Perkin Elmer, USA) and binding activity was determined by counting residual radioligand using a 1450 Micro-beta scintillation counter (Wallac, UK). The following representative compounds were tested. […]

Ki [3]	inhibition [4]	melting point	Compound	inhibition in vivo at 30 mg/kg [1]	reduction in ear swelling [2]
–	> 70%	205 to 207 °C	O=C(O)CN1C(=O)C2(CC(=O)N(Cc3ccccc3)C2=O)c2cc(Cl)ccc21 (centres unmarked) [Example 12, (1′-Benzyl-5-chloro-2,2′,5′-trioxo-spiro[indole-3,3′-pyrrolidin]-1-yl)acetic acid]	–	–
150 nM	–	–	O=C(O)CN1C(=O)[C@@]2(CC(=O)N(Cc3cc(Cl)ccc3F)C2=O)c2cc(Cl)ccc21 [Compound 112, (3R)-[5-chloro-1′-(2-fluoro-5-chlorobenzyl)-2,2′,5′-trioxospiro[indole-3,3′-pyrrolidin]-1(2H)-yl]acetic acid]	61%	–

The remaining lines, values behind:

Compound	Ki [3]	inhibition [4]	melting point	inhibition in vivo at 30 mg/kg [1]	reduction in ear swelling [2]
O=C(O)CN1C(=O)[C@]2(CC(=O)N(Cc3cccc(Cl)c3)C2=O)c2cc(Cl)ccc21 [Compound 83, (3S)-[5-chloro-1′-(3-chlorobenzyl)-2,2′,5′-trioxospiro[indole-3,3′-pyrrolidin]-1(2H)-yl]acetic acid]	–	–	–	77%	40%
O=C(O)CN1C(=O)C2(NC(=O)N(Cc3cc(Cl)ccc3F)C2=O)c2cc(Cl)ccc21 (centres unmarked) [Compound 105, [5′-chloro-1-(5-chloro-2-fluorobenzyl)-2,2′,5-trioxospiro[imidazolidine-4,3′-indol]-1′(2′H)-yl]acetic acid]	16 nM	–	–	60%	55%
O=C(O)CN1C(=O)[C@]2(CC(=O)N(Cc3cc(Cl)ccc3F)C2=O)c2cc(Cl)ccc21 [Compound 111, (3S)-[5-chloro-1′-(2-fluoro-5-chlorobenzyl)-2,2′,5′-trioxospiro[indole-3,3′-pyrrolidin]-1(2H)-yl]acetic acid]	470 nM	–	–	65%	–
